Data taken from US8507509B2, “Saturated and insaturated bi- or tricyclic aryloxyacetamine derivatives and their use as fungicides” (Syngenta Crop Protection LLC, priority 2007, dated 2013).
Like-named read-outs stand apart in the source and are kept apart here.

How the values were obtained:
[1] = system: Plasmopara viticola; assay: Plasmopara viticola (downy mildew of grapevine), grapevine leaf disk assay, preventive; type: in vivo; details: foliar, 168 h, read-out: control of fungal infection, Plasmopara viticola
[2] = system: Phytophthora infestans; assay: whole plant or invertebrate; type: in vivo; details: in Solanum lycopersicum, foliar, 96 h, read-out: control of fungal infection, Phytophthora infestans
[3] = system: Puccinia recondita f.sp. tritici; assay: Puccinia recondita f.sp. tritici (wheat brown rust), wheat leaf segment assay, preventive; type: in vivo; details: foliar, 216 h, read-out: control of fungal infection, Puccinia recondite f.sp. tritici
[4] = system: Septoria nodorum; assay: Septoria nodorum (wheat glume blotch), wheat leaf segment assay, preventive; type: in vivo; details: Parastagonospora nodorum, foliar, 96 h, read-out: control of fungal infection, Septoria nodorum
[5] = system: Septoria tritici; assay: Septoria tritici (leaf blotch), liquid culture growth inhibition in nutrient broth; type: cell-based; details: Zymoseptoria tritici, read-out: control of fungal infection, Septoria tritici
[6] = system: Fusarium culmorum; assay: Fusarium culmorum (root rot), liquid culture growth inhibition in nutrient broth; type: cell-based; details: PDB broth, 24 C, inhibition of growth determined photometrically after 48 hrs, read-out: control of fungal infection, Fusarium culmorum
Method: Mycelia fragments or conidia suspensions of a fungus, prepared either freshly from liquid cultures of the fungus or from cryogenic storage, are directly mixed into nutrient broth. DMSO solutions of the test compound (max. 10 mg/ml) is diluted with 0.025% Tween20 by factor 50 and 10 μl of this solution is pipetted into a microtiter plate (96-well format) and the nutrient broth containing the fungal spores/mycelia fragments is then added to give an end concentration of the tested compound. The test plates are incubated at 24° C. and 96% rH in the dark. The inhibition of fungal growth is determined photometrically after 2-6 days and antifungal activity is calculated.
Fusarium culmorum (root rot): Conidia of the fungus from cryogenic storage were directly mixed into nutrient broth (PDB potato dextrose broth). After placing a (DMSO) solution of the test compounds into a microtiter plate (96-well format) the nutrient broth containing the fungal spores was added. The test plates were incubated at 24 C and the inhibition of growth was determined photometrically after 48 hrs.

[7] = system: Pythium ultimum; assay: Pythium ultimum (Damping off), liquid culture growth inhibition in potato dextrose broth; type: cell-based; details: Globisporangium ultimum, read-out: control of fungal infection, Pythium ultimum
[8] = system: Erysiphe graminis f.sp. tritici; assay: Erysiphe graminis f.sp. tritici (wheat powdery mildew), wheat leaf segment assay, preventive; type: in vivo; details: Blumeria graminis, foliar, 96 h, read-out: control of fungal infection, Etysiphe graminis f.sp. tritici
[9] = system: Botrytis cinerea; assay: Botrytis cinerea (grey mould), bean leaf disk assay, preventive; type: in vivo; details: foliar, 96 h, read-out: control of fungal infection, Botrytis cinerea
[10] = 200 ppm, grapevine leaf disks, assessed seven days after inoculation
[11] = 200 ppm, wheat leaf segments, assessed nine days after inoculation
[12] = 200 ppm, wheat leaf segments, assessed four days after inoculation
[13] = 200 ppm, PDB broth, 24 C, inhibition of growth determined photometrically after 72 hrs
[14] = 20 ppm, potato dextrose broth, 24° C., inhibition of growth determined photometrically after 48 hours
[15] = 200 ppm, bean leaf disks, assessed four days after inoculation

CON=C(C)C(C)(C)NC(=O)C(Oc1ccc2ncc(Br)cc2c1)SC (stereo not shown) [Compound No. 111, 2-(3-Bromo-quinolin-6-yloxy)-N-{2-[(E or Z)-methoxyimino]-1,1-dimethyl-propyl}-2-methylsulfanyl-acetamide]
≥ 60%: pest or weed control at 200 ppm [1, 10] | pest or weed control at 200 ppm [2] | pest or weed control at 200 ppm [3, 11] | pest or weed control at 200 ppm [4, 12] | inhibition of growth at 200 ppm [5, 13] | inhibition of growth at 200 ppm [6] | inhibition of growth at 20 ppm [7, 14]

CON=CC1(NC(=O)C(Oc2ccc3ncc(I)cc3c2)SC)CCC1 (stereo not shown) [Compound No. 79, 2-(3-Iodo-quinolin-6-yloxy)-N-[1-(methoxyimino-methyl)-cyclobutyl]-2-methylsulfanyl-acetamide]
≥ 60%: pest or weed control at 200 ppm [1, 10] | pest or weed control at 200 ppm [2] | pest or weed control at 200 ppm [8, 12] | pest or weed control at 200 ppm [3, 11] | pest or weed control at 200 ppm [4, 12] | inhibition of growth at 200 ppm [5, 13] | inhibition of growth at 200 ppm [6] | inhibition of growth at 20 ppm [7, 14]

COCC(C)(C=NOC)NC(=O)C(Oc1ccc2ncc(Br)cc2c1)SC (stereo not shown) [Compound No. 64, 2-(3-Bromo-quinolin-6-yloxy)-N-[2-methoxy-1-(methoxyimino-methyl)-1-methyl-ethyl]-2-methylsulfanyl-acetamide]
≥ 60%: pest or weed control at 200 ppm [1, 10] | pest or weed control at 200 ppm [2] | pest or weed control at 200 ppm [8, 12] | pest or weed control at 200 ppm [9, 15] | pest or weed control at 200 ppm [3, 11] | pest or weed control at 200 ppm [4, 12] | inhibition of growth at 200 ppm [5, 13] | inhibition of growth at 200 ppm [6] | inhibition of growth at 20 ppm [7, 14]

C#Cc1cnc2ccc(OC(OC)C(=O)NC(C)(C)C=NOC)cc2c1 (stereo not shown) [Compound No. 76, 2-(3-Ethynyl-quinolin-6-yloxy)-2-methoxy-N-(2-methoxyimino-1,1-dimethyl-ethyl)-acetamide]
≥ 60%: pest or weed control at 200 ppm [1] | pest or weed control at 200 ppm [2] | pest or weed control at 200 ppm [8] | pest or weed control at 200 ppm [9] | pest or weed control at 200 ppm [3] | pest or weed control at 200 ppm [4] | inhibition of growth at 200 ppm ([5]; 72 h) | inhibition of growth at 200 ppm [6] | inhibition of growth at 20 ppm ([7]; 48 h)

C#Cc1cnc2ccc(OC(SC)C(=O)NC3(C=NOC)CCC3)cc2c1 (stereo not shown) [Compound No. 78, 2-(3-ethynyl-quinolin-6-yloxy)-N-[1-(methoxyimino-methyl)-cyclobutyl]-2-methylsulfanyl-acetamide]
≥ 60%: pest or weed control at 200 ppm [1, 10] | pest or weed control at 200 ppm [2] | pest or weed control at 200 ppm [3, 11] | pest or weed control at 200 ppm [4, 12] | inhibition of growth at 200 ppm [5, 13] | inhibition of growth at 200 ppm [6] | inhibition of growth at 20 ppm [7, 14]

C#Cc1cnc2ccc(OC(CC)C(=O)NC(C)(C)C=NO)cc2c1 (stereo not shown) [Compound No. 147, 2-(3-Ethynyl-quinolin-6-yloxy)-N-(2-hydroxyimino-1,1-dimethyl-ethyl)-butyramide]
≥ 60%: pest or weed control at 200 ppm [1, 10] | pest or weed control at 200 ppm [2] | pest or weed control at 200 ppm [8, 12] | pest or weed control at 200 ppm [3, 11] | pest or weed control at 200 ppm [4, 12] | inhibition of growth at 200 ppm [5, 13] | inhibition of growth at 200 ppm [6] | inhibition of growth at 20 ppm [7, 14]

C#Cc1cnc2cc(F)c(OC(CC)C(=O)NC(C)(C)C=NOC)cc2c1 (stereo not shown) [Compound No. 134, 2-(3-Ethynyl-7-fluoro-quinolin-6-yloxy)-N-(2-methoxyimino-1,1-dimethyl-ethyl)-butyramide]
≥ 60%: pest or weed control at 200 ppm [1, 10] | pest or weed control at 200 ppm [2] | pest or weed control at 200 ppm [8, 12] | pest or weed control at 200 ppm [3, 11] | pest or weed control at 200 ppm [4, 12] | inhibition of growth at 200 ppm [5, 13] | inhibition of growth at 200 ppm [6] | inhibition of growth at 20 ppm [7, 14]

CCC(Oc1cc(Cl)c2ncc(Br)cc2c1)C(=O)NC(C)(C)C=NOC (stereo not shown) [Compound No. 146, 2-(3-Bromo-8-chloro-quinolin-6-yloxy)-N-(2-methoxyimino-1,1-dimethyl-ethyl)-butyramide]
≥ 60%: pest or weed control at 200 ppm [1, 10] | pest or weed control at 200 ppm [2] | pest or weed control at 200 ppm [8, 12] | pest or weed control at 200 ppm [3, 11] | pest or weed control at 200 ppm [4, 12] | inhibition of growth at 200 ppm [5, 13] | inhibition of growth at 200 ppm [6] | inhibition of growth at 20 ppm [7, 14]

C#Cc1cnc2c(C)cc(OC(CC)C(=O)NC(C)(C)C=NO)cc2c1 (stereo not shown) [Compound No. 139, 2-(3-Ethynyl-8-methyl-quinolin-6-yloxy)-N-(2-hydroxyimino-1,1-dimethyl-ethyl)-butyramide]
≥ 60%: pest or weed control at 200 ppm [1, 10] | pest or weed control at 200 ppm [2] | pest or weed control at 200 ppm [8, 12] | pest or weed control at 200 ppm [3, 11] | pest or weed control at 200 ppm [4, 12] | inhibition of growth at 200 ppm [5, 13] | inhibition of growth at 200 ppm [6] | inhibition of growth at 20 ppm [7, 14]

C#CCOCC(C)(C=NOC)NC(=O)C(Oc1ccc2ncc(C#C)cc2c1)SC (stereo not shown) [Compound No. 62, 2-(3-Ethynyl-quinolin-6-yloxy)-N-(2-methoxyimino-1-methyl-1-prop-2-ynyloxymethyl-ethyl)-2-methylsulfanyl-acetamide]
≥ 60%: pest or weed control at 200 ppm [1, 10] | pest or weed control at 200 ppm [2] | pest or weed control at 200 ppm [8, 12] | pest or weed control at 200 ppm [9, 15] | pest or weed control at 200 ppm [3, 11] | pest or weed control at 200 ppm [4, 12] | inhibition of growth at 200 ppm [5, 13] | inhibition of growth at 20 ppm [7, 14]

C#Cc1cnc2ccc(OC(CC)C(=O)NC(C)(C)C=NOCC)cc2c1 (stereo not shown) [Compound No. 148, N-(2-Ethoxyimino-1,1-dimethyl-ethyl)-2-(3-ethynyl-quinolin-6-yloxy)-butyramide]
≥ 60%: pest or weed control at 200 ppm [1, 10] | pest or weed control at 200 ppm [2] | pest or weed control at 200 ppm [8, 12] | pest or weed control at 200 ppm [3, 11] | pest or weed control at 200 ppm [4, 12] | inhibition of growth at 200 ppm [5, 13] | inhibition of growth at 200 ppm [6] | inhibition of growth at 20 ppm [7, 14]

C#Cc1cnc2ccc(OC(SC)C(=O)NC(C)(C#N)C=NOC)cc2c1 (stereo not shown) [Compound No. 59, N-(1-Cyano-2-methoxyimino-1-methyl-ethyl)-2-(3-ethynyl-quinolin-6-yloxy)-2-methylsulfanyl-acetamide]
≥ 60%: pest or weed control at 200 ppm [1, 10] | pest or weed control at 200 ppm [2] | pest or weed control at 200 ppm [8, 12] | pest or weed control at 200 ppm [9, 15] | pest or weed control at 200 ppm [3, 11] | pest or weed control at 200 ppm [4, 12] | inhibition of growth at 200 ppm [5, 13] | inhibition of growth at 200 ppm [6]

CON=CC(C)NC(=O)C(Oc1ccc2ncc(Br)cc2c1)SC (stereo not shown) [Compound No. 94, 2-(3-Bromo-quinolin-6-yloxy)-N-(2-methoxyimino-1-methyl-ethyl)-2-methylsulfanyl-acetamide]
≥ 60%: pest or weed control at 200 ppm [1, 10] | pest or weed control at 200 ppm [2] | pest or weed control at 200 ppm [8, 12] | pest or weed control at 200 ppm [3, 11] | pest or weed control at 200 ppm [4, 12] | inhibition of growth at 200 ppm [5, 13] | inhibition of growth at 200 ppm [6] | inhibition of growth at 20 ppm [7, 14]

C#Cc1cnc2ccc(OC(SC)C(=O)NC3(C=NO)CCC3)cc2c1 (stereo not shown) [Compound No. 80, 2-(3-Ethynyl-quinolin-6-yloxy)-N-[1-(hydroxyimino-methyl)-cyclobutyl]-2-methylsulfanyl-acetamide]
≥ 60%: pest or weed control at 200 ppm [1, 10] | pest or weed control at 200 ppm [2] | pest or weed control at 200 ppm [8, 12] | pest or weed control at 200 ppm [3, 11] | pest or weed control at 200 ppm [4, 12] | inhibition of growth at 200 ppm [5, 13] | inhibition of growth at 200 ppm [6] | inhibition of growth at 20 ppm [7, 14]

C#Cc1cnc2ccc(OC(CC)C(=O)NC(C)(C)C=NOCC=C)cc2c1 (stereo not shown) [Compound No. 149, N-(2-Allyloxyimino-1,1-dimethyl-ethyl)-2-(3-ethynyl-quinolin-6-yloxy)-butyramide]
≥ 60%: pest or weed control at 200 ppm [8, 12] | pest or weed control at 200 ppm [9, 15] | pest or weed control at 200 ppm [3, 11] | inhibition of growth at 200 ppm [5, 13] | inhibition of growth at 200 ppm [6] | inhibition of growth at 20 ppm [7, 14]
